Laboratory results: patent US8173813B2, “Quinolone and tetrahydroquinolone and related compounds having NOS inhibitory activity” (NeurAxon, Inc., priority 2007, dated 2012)

Experiments:
[1] = target: Recombinant human inducible NOS (iNOS) (Homo sapiens, UniProt P35228); experiment: Human iNOS enzyme assay, radiometric; type: biochemical; details: read-out: hiNOS IC50
nNOS (Rat) = nNOS (Rat) (Rattus norvegicus, UniProt P29476); experiment: nNOS (Rat) enzyme assay; type: biochemical; details: rodent enzymes; values in parentheses
Procedure: nNOS (Rat), eNOS (Rat) and iNOS (Mouse) Enzyme Assay Recombinant rat or mouse NO synthases (iNOS, eNOS, nNOS) were expressed in Sf9 cells (Sigma), 36 mg prot/ml (Bradford). […] Inhibition of NOS was determined by measuring the formation of L-[3H] citrulline from L-[3H] arginine. […] Stop buffer:100 mM Hepes, pH 5.5, 3 mM EDTA, 3 mM EGTA.

[2] = system: Male, Sprague Dawley rats; experiment: Porreca model of allodynia (inflammatory soup onto the dura, hindpaw von Frey); type: in vivo, rat
[3] = target: Nitric oxide synthase (endothelial, human recombinant) eNOS (Homo sapiens, UniProt P29474); experiment: Human eNOS enzyme assay ([3H]L-arginine to [3H]L-citrulline); type: biochemical; details: human recombinant eNOS; values without parentheses; read-out: heNOS IC50
[4] = system: Rats with L5/L6 spinal nerve ligation; experiment: Chung Spinal Nerve Ligation model, tactile allodynia; type: in vivo, rat; details: standard dosings 3, 10, and 30 mg/kg injected IP
eNOS (Rat) = eNOS (Rat) (Rattus norvegicus, UniProt Q62600); experiment: eNOS (Rat) enzyme assay; type: biochemical; details: values in parentheses, read-out: eNOS IC50 (rodent data in parentheses)
[5] = system: Rats with L5/L6 spinal nerve ligation; experiment: Chung Spinal Nerve Ligation model, thermal hyperalgesia; type: in vivo, rat; details: standard dosings 3, 10, and 30 mg/kg injected IP
[6] = target: Nitric oxide synthase (neuronal, human recombinant) nNOS (Homo sapiens, UniProt P29475); experiment: Human nNOS enzyme assay ([3H]L-arginine to [3H]L-citrulline); type: biochemical
[7] = system: patients with cardiogenic shock; details: randomized trial of 30 patients; reduced from 67%; cited from earlier work
migraine patients [8] = details: human migraine; single i.v. administration; cited from earlier work
[9] = system: patients with persistent shock; details: 11 patients with persistent shock; up to 30 days; cited from earlier work
migraine patients [10] = details: human migraine; open pilot study; cited from earlier work

Nitric oxide synthase (neuronal, human recombinant) nNOS, sequence (P29475 whole entry): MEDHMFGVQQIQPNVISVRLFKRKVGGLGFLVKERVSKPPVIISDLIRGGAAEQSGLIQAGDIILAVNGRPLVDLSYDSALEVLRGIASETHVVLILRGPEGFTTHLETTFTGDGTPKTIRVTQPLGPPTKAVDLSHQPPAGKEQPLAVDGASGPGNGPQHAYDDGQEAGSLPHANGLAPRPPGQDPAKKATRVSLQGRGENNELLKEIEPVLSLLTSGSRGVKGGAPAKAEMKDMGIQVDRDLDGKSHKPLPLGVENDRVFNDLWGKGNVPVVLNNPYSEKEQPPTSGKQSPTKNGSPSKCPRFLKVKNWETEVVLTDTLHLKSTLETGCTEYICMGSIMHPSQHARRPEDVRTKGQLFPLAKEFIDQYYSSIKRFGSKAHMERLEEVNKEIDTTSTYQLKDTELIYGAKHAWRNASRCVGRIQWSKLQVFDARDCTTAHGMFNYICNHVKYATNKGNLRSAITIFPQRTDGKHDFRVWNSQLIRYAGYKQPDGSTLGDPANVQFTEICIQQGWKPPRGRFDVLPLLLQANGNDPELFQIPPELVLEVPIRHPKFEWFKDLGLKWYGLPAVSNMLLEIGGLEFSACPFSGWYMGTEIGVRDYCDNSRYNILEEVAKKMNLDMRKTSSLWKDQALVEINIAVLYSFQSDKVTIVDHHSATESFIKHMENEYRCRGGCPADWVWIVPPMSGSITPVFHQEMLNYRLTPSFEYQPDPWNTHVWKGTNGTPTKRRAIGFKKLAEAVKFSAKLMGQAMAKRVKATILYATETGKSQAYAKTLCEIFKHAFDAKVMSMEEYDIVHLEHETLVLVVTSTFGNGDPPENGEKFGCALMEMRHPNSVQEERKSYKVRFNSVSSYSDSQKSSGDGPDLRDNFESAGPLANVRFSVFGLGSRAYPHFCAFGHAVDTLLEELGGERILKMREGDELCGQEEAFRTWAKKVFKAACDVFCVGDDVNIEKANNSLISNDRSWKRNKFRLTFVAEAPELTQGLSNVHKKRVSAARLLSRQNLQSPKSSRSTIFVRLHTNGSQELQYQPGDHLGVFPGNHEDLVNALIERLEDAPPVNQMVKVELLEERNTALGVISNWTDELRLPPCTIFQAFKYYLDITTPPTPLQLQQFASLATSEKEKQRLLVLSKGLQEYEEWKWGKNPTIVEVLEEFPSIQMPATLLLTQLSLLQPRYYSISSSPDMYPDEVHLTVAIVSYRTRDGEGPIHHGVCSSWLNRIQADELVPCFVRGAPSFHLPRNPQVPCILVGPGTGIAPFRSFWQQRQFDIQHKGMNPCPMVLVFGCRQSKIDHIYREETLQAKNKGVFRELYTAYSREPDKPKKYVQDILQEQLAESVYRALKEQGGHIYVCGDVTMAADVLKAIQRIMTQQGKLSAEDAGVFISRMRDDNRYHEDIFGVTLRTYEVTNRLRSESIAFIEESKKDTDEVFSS
Nitric oxide synthase (endothelial, human recombinant) eNOS, sequence (P29474 2-1203): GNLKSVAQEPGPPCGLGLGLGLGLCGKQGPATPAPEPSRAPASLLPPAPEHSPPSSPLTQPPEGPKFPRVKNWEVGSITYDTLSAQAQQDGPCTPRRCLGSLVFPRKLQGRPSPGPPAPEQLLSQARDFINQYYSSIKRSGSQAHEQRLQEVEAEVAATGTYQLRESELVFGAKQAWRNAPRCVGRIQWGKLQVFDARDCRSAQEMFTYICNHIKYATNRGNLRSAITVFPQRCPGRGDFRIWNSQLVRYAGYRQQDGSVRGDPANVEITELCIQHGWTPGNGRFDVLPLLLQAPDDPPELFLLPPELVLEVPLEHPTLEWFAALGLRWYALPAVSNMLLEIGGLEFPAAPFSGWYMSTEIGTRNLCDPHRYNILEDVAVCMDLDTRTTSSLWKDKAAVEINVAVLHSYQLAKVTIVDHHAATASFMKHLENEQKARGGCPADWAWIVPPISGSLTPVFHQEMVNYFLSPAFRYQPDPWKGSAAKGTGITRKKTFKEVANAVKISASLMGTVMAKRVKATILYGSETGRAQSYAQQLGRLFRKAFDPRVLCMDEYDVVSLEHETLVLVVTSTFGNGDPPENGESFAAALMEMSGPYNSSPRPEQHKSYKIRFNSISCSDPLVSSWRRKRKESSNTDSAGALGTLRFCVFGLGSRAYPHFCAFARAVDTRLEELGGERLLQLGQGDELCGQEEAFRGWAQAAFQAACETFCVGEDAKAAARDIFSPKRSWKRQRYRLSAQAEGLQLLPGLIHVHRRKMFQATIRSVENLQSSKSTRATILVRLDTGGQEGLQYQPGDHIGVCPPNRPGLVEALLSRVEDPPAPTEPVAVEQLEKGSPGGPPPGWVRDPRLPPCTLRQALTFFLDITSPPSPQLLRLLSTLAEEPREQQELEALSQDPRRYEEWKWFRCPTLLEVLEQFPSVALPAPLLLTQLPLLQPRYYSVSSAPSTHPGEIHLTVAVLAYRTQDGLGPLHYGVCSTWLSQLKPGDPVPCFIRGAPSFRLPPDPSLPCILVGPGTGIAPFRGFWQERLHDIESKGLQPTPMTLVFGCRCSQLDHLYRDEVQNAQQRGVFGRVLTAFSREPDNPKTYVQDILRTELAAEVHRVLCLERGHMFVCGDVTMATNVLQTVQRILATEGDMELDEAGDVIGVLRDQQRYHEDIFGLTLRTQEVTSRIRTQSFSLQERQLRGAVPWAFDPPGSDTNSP
eNOS (Rat), sequence (Q62600 2-1202): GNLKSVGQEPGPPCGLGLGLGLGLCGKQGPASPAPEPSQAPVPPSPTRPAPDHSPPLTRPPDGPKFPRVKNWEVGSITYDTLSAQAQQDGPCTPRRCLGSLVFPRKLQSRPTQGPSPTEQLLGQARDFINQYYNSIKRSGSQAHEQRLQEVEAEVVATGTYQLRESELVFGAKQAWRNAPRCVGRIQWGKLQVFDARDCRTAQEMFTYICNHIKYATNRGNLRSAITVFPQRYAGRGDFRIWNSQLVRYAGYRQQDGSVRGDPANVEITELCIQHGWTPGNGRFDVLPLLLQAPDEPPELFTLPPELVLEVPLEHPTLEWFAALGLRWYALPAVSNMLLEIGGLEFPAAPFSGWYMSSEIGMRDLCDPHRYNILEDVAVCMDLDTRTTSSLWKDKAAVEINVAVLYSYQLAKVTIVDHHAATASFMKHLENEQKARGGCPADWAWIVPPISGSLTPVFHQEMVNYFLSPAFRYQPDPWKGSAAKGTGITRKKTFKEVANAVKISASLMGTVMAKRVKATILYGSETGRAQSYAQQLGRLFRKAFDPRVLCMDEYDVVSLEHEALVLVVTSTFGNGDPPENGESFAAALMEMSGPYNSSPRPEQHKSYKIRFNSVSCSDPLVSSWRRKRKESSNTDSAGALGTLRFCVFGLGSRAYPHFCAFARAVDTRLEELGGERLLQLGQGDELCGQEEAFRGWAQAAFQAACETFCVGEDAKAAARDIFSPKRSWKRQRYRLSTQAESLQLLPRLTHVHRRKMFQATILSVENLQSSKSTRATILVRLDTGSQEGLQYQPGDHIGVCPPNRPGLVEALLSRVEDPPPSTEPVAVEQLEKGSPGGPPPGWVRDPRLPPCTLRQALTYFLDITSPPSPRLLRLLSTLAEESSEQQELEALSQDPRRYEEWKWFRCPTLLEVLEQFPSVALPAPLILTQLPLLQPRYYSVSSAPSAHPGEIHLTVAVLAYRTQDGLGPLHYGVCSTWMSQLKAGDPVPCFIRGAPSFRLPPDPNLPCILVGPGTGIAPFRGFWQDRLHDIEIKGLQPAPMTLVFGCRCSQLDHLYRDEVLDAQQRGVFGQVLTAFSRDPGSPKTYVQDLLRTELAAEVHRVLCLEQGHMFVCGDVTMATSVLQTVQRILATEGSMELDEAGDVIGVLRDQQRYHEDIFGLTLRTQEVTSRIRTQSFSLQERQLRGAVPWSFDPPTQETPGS
Recombinant human inducible NOS (iNOS), sequence (P35228 whole entry): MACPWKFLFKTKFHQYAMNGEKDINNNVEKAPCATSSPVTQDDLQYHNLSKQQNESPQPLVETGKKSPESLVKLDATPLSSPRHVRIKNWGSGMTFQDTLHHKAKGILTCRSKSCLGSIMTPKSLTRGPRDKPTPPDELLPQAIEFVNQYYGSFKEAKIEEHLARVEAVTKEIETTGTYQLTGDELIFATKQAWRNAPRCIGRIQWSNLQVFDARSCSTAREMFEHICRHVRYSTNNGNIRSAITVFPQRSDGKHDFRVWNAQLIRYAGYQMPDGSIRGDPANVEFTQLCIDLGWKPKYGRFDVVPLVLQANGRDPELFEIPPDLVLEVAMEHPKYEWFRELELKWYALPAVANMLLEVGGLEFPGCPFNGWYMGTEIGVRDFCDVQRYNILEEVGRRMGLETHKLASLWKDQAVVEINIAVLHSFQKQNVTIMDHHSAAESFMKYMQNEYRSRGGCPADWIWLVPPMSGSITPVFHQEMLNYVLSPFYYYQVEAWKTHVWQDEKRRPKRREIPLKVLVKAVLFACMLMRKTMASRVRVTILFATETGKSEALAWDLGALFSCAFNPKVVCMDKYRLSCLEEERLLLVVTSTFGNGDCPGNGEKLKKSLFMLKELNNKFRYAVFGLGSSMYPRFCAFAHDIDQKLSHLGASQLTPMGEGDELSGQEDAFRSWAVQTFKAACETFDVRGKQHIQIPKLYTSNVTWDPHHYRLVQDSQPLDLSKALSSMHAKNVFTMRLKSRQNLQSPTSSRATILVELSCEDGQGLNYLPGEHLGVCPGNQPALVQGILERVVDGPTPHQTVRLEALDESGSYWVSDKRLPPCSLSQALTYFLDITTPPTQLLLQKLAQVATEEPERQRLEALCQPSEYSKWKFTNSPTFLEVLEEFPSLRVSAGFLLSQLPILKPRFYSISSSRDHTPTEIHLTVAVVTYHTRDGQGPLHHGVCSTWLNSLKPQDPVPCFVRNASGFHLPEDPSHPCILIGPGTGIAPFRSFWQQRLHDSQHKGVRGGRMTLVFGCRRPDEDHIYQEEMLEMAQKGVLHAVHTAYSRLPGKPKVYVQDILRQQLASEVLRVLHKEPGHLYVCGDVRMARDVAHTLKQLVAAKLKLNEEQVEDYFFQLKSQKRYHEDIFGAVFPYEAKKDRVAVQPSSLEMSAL

For CN1CCCC1CCN1CCCc2cc(NC(=N)c3cccs3)ccc21 (single isomer, unassigned) [Example 23, N-(1-(2-(1-Methylpyrrolidin-2-yl)ethyl)-1,2,3,4-tetrahydroquinolin-6-yl)thiophene-2-carboximidamide], the IC50 [1] was > 100 µM, the “Selectivity eNOS/nNOS (rodent data in parentheses)” value (nNOS (Rat)) was “(>434)” and the “hindpaw allodynia after inflammatory soup (IS)” value ([2]; 30 mg/kg p.o. 15 minutes prior to IS) was “reverses the development of hindpaw allodynia”. The IC50 [3] was 41 µM, the “antiallodynic effect in the Chung model” value [4] was “antiallodynic effect” and the IC50 (eNOS (Rat)) was > 100 µM. The “antihyperalgesic effect in the Chung model” value [5] was “clear antihyperalgesic effect”, the “Selectivity eNOS/nNOS” value ([6]; human enzymes, ratio of eNOS IC50 to nNOS IC50) was 157 and the IC50 ([6]; human recombinant nNOS, values without parentheses, read-out: hnNOS IC50) was 0.26 µM.
In the case of COC(=O)[C@@H](N)CCCNC(=N)N[N+](=O)[O-] [L-NAME, N^G-Nitro-L-arginine methyl ester], the patient mortality [7] is listed as 27%.
For CNC(=N)NCCC[C@H](N)C(=O)O [L-NMMA, N^G-monomethyl-L-arginine], the “hindpaw allodynia after inflammatory soup (IS)” value ([2]; 10 mg/kg i.v 15 minutes prior to IS) is given as “reverses the development of hindpaw allodynia”, the response rate (migraine patients [8]) is given as 67% and the survival rate [9] is given as 72%.
In the case of C/C1=C2/[N-][C@H]([C@H](CC(N)=O)[C@@]2(C)CCC(=O)NC[C@@H](C)OP(=O)([O-])O[C@H]2[C@@H](O)[C@@H](n3cnc4cc(C)c(C)cc43)O[C@@H]2CO)[C@]2(C)N=C(/C(C)=C3N=C(/C=C4N=C1[C@@H](CCC(N)=O)C\4(C)C)[C@@H](CCC(N)=O)[C@]\3(C)CC(N)=O)[C@@H](CCC(N)=O)[C@]2(C)CC(N)=O.[Co+3].[OH-] [hydroxycobalamin], the “patients with a reduction in the frequency of migraine attack of 50%” value (migraine patients [10]) is given as 53%.
